Experimental data published in patent US11925622B2, “Role of novel carbazole linked 1, 2, 3- triazole analogs in alleviating methylglyoxal-mediated late diabetic vascular complications” (priority 2021, dated 2024).
“And” between values parts separate entries of the source, which are not always exact repeats. Equal entries are not always repeated.

Legend:
[1] = test system: MGO-mediated BSA glycation; assay: In vitro antiglycation activity, MGO-BSA glycation assay (fluorescence); format: biochemical, bovine; settings: for IC50 / % inhibition of MGO-BSA glycation: BSA 10 mg/mL, MGO 0.1 M, 24 h, 37° C.; for IC50: read-out: IC50 antiglycation, MGO-BSA model; for % inhibition of MGO-BSA glycation: compounds at 1 mM
Protocol: In vitro antiglycation activity: The MGO-BSA assay was performed as per optimized protocol of Jahan, H. et al with slight modifications. Initially, the antiglycation activity of parent compound carbazole (1), and carbazole-linked 1,2,3 triazoles 2-16 were identified at 1 mM using MGO-BSA model. […] BSA (10 mg/mL) incubated with MGO (0.1 M) for 24 h at 37° C. using phosphate-azide buffer (0.1 mM), served as a positive control. The wells with BSA only were taken as negative control. Whereas, rutin and quercetin were used as standard antiglycation agents. After 24 h of incubation, the fluorescence of each well was measured by using microplate reader (Varioskan lux, Thermo Fisher Scientific, 319 Scientific, USA) at 355 nm excitation, and 460 nm emission.
The % inhibition of MGO-BSA-mediated by carbazole-triazole derivatives was quantified by using the following formula: […]
The IC50 of active antiglycation compounds were identified by using EZ-FIT Enzyme Kinetics Program (Perrella Scientific Inc., Amherst, USA).

[2] = test system: MGO-AGEs-induced ROS in THP-1 monocytes; assay: Anti-oxidation activity, DCFH-DA assay of MGO-AGEs-mediated ROS in monocytes; format: cell-based, human; settings: for ROS (DCF fluorescence) in MGO-AGEs-treated monocytes: 100 μM (maximum inhibition), MGO-AGEs 50 μg/mL, 24 h; for antioxidant activity / ROS production inhibition (in words): MGO-AGEs 50 μg/mL-treated THP-1 monocytes
Protocol: Anti-oxidation activity: The measurement of effect of derivatives on AGEs-mediated ROS was based on the previously reported protocol of Soumyarani and colleagues with slight amendments. Initially, 1×10^6 monocytes/mL were loaded in sterile 96-well flat bottom black fluorescent plate, and pre-incubated with DCFH-DA (10 μM; Sigma-Aldrich Chemical Corporation, St. Louis, Missouri, USA) for 45 min at 37° C. Followed by the incubation, antiglycating, non-toxic carbazole-linked triazole derivatives (10, 30, 50, and 100 μM) were added to the wells for 1 h before co-treatment of cells with MGO-AGEs (50 μg/mL) for next 24 h. Next, the fluorometric measurement of converted DCFH into oxidized DCF product was carried out via spectrofluorimeter (Varioskanmicroplate reader, Thermo Fisher Scientific, USA) using 485 nm excitation and 520 nm emission wavelengths. Various controls were plated in each experiment. Wells containing culture RPMI with MGO-AGEs (50 μg/mL) and H2O2 ([…]) served as positive controls, while cells containing BSA were taken as negative control.

[3] = test system: NF-κB (p65) translocation in monocytes; assay: NF-κB (p65) translocation analysis by immunocytochemistry; format: cell-based, human; settings: compounds 100 μM, 1 h pre-incubation; AGEs 50 μg/mL 1 h; MGO-AGEs control 75 RFU, BSA 11 RFU
Protocol: NF-κB (p^65) translocation analysis: The monocytes at the density of 1×10^6 cells/mL were pre-incubated with compounds (100 μM) for an h, and then co-incubated with AGEs (50 μg/mL) for another 1 h in a 24-well plate at 37° C. Following treatment, cells were fixed with paraformaldehyde (4% PFA; 10 min), and permeabilized with Triton X-100 (0.2%; 10 min). Next, the cells were rinsed with chilled PBS three times, and incubated with bovine serum albumin (1% BSA; 1 h) to block the non-specific binding sites. Cells were exposed to primary antibody against NF-κB (p 65) (1:300 dilution, Thermo Fisher Scientific, Waltham, MA, USA) for overnight at 4° C. Subsequently followed by washing the cells with chilled PBS three times, secondary antibody (polyclonal fluorescein isothiocyanate (FITC)-conjugated antibody) to rabbit IgG (1:1000 dilution, Abeam, Cambridge, UK) was used.
Nuclei were counterstained by using DAPI (Thermo Fisher Scientific, Waltham, MA, USA). The BSA-treated monocytes (50 μg/mL) had served as a negative control, while AGEs-treated monocytes (50 μg/mL) as positive control. All the images were taken by using Nikon microscope (Nikon, Tokyo, Japan). The quantification of images was carried out via ImageJ (Image processing and analysis in Java-NIH).

COX-2 = COX-2 protein levels analysis by immunoblotting; format: cell-based; settings: human monocytes co-treated with MGO-AGEs 50 μg/mL; immunoblot densitometry
Protocol: COX-2 protein levels analysis: The 50 μg/mL of protein was loaded onto 10% sodium dodecyl sulfate-polymerized acrylamide gel electrophoresis (SDS-PAGE), and transferred to nitrocellulose membranes using power blotter XL System (Invitrogen; Thermo Fisher Scientific). Subsequently, the membrane was incubated for 1 h in 1% bovine serum albumin in PBS with 0.1% Tween-20 to block unspecified binding. The protein bands of the membrane were probed with primary monoclonal antibody COX-2 (Thermo Fisher Scientific, Waltham, MA, USA), and B-actin (Cloud-Clone Corp., Wuhan, China) for overnight at 4° C. Following incubation, the membrane was rinsed with tris buffer saline tween (TBST) three times, and then exposed to secondary antibody (HRP mouse mono anti-rabbit IgG; Abeam, Cambridge, UK) at room temperature for an hour. The washing was again carried three times with TBST, and then the membrane was exposed to ECL (Sangon biotech, Shanghai, China) to visualize the bands in Western Blot Detection System (Thermo Fisher Scientific, Waltham, MA, USA). The densitometry of immuno-positive COX-2, and β-actin bands was used by Image J.

PGE2 = PGE2 levels analysis by ELISA in THP-1 culture supernatants; format: cell-based, human; settings: THP-1, compounds 1 h, then AGEs 50 μg/mL
Protocol: PGE2 levels analysis: ELISA-based method was employed to identify the concentration of PGE2 in culture supernatants of THP-1 cells that was initially exposed with compounds for 1 h, and then stimulated with AGEs (50 μg/mL). All the steps were followed according to the manufacturer's protocols.

Row | SMILES | IC50 [1] [µM] | % inhibition of MGO-BSA glycation [1] [%] | ROS (DCF fluorescence) in MGO-AGEs-treated monocytes [2] [RFU] | NF-κB translocation in MGO-AGEs-treated monocytes [3] [RFU] | reduction in COX-2 levels compared to MGO-BSA-treated cells (COX-2) | effect on PGE2 levels (in words) (PGE2) | antiglycation activity in MGO-BSA model (in words) [1] | antioxidant activity / ROS production inhibition (in words) [2]
1 | C[C@@H]1O[C@@H](OC[C@H]2O[C@@H](Oc3c(-c4ccc(O)c(O)c4)oc4cc(O)cc(O)c4c3=O)[C@H](O)[C@@H](O)[C@@H]2O)[C@H](O)[C@H](O)[C@H]1O [Rutin, 2-(3,4-Dihydroxyphenyl)-5,7-dihydroxy-4-oxo-4H-chromen-3-yl 6-O-(6-deoxy-alpha-L-mannopyranosyl)-beta-D-glucopyranoside, reference compound] | 104 ± 2 | 67 | 7.44 | 43 | 1.65 fold | relatively more suppression than quercetin | – | –
2 | N.S=C(S)N1CCCC1 [PDTC, reference compound] | – | – | 7.84 | 45 | 1.60 fold | relatively more suppression than quercetin | – | –
3 | Cc1ncc([N+](=O)[O-])n1CCn1cc(Cn2c3ccccc3c3ccccc32)nn1 [Compound 13, 9-((1-(2-(2-Methyl-5-nitro-1H-imidazol-1-yl)ethyl)-1H1,2,3-triazol-4-yl)methyl)-9H-carbazole] | 135 ± 5 | 77.8 | 8.75 | 54 | – | reduced PGE2 levels significantly | good activity | excellent ROS production inhibition
4 | O=C(Cn1cc(Cn2c3ccccc3c3ccccc32)nn1)c1ccc([N+](=O)[O-])cc1 [Compound 12, 2-(4-((9H-Carbazole-9-yl)methyl)-1H-1,2,3-triazole-1-y1)-1-(4-nitrophenyl)ethan-1-one] | 76.1 ± 6 | 83.7 | 6.32 | 33 | 2.11 fold and 3 fold | reduced PGE2 levels significantly | excellent antiglycation activity | excellent ROS production inhibition
